In patent US11214570B2, “Pyrrolopyridine derivative, method for producing same, and use thereof” (ST PHARM CO., LTD., priority 2017, dated 2022):
Where two headings read alike, the source gives them in different places.

Experiments:
HIV-1 NL4-3 wt = experiment: Inhibition of HIV-1 NL4-3 wt; format: cell-based; settings: Human immunodeficiency virus 1, NL43
Experimental: (§1) In order to look into the HIV-1 (Wild/Mutant type) inhibition effects of the compound of the invention, a test for HIV-1 (Wild/Mutant type) inhibition effect was carried out in vitro as follows according to a known method (H. Tanaka et al., J. Med. Chem., 1991, 34, 349). MT-4 cells were used as host cells, and the degree of the compound of the present invention inhibiting cytotoxicity for the virus-infected MT-4 cells was investigated.
(§2) First, MT-4 cells were dispersed in a culture medium at a concentration of 1×10^4cells/well, and HIV-1 was inoculated so that the concentration was 500 TCI50 (concentration at which 50% of the cells are infected)/well. Immediately after the inoculation, the cell dispersion was transferred in 100 μL each to a flat microtiter plate in which a sample of the compound of the invention was placed. The sample was incubated for approximately for 4 to 5 days at […], and the virus inhibition effect was determined with an MTT method. […] As a comparative compound, azidothymidine (AZT), Raltegravir, Dolutegravir, and Elvitegravir were used.

HIV-1 Clone 4736_2 = experiment: microbe, parasite or virus in culture; format: cell-based; settings: Human immunodeficiency virus 1
Experimental: as §1, §2

HIV-1 Clone 8070_1 = experiment: Inhibition of HIV-1 clone 8070_1 (Raltegravir resistance mutant); format: cell-based; settings: Human immunodeficiency virus 1
Experimental: as §1, §2

HIV-1 Clone 8070_2 = experiment: Inhibition of HIV-1 clone 8070_2 (Raltegravir resistance mutant); format: cell-based; settings: Human immunodeficiency virus 1
Experimental: as §1, §2

HIV-1 Clone 1556_1 = experiment: Inhibition of HIV-1 clone 1556_1 (Raltegravir resistance mutant); format: cell-based; settings: Human immunodeficiency virus 1
Experimental: as §1, §2

HIV-1 Clone 4736_4 = experiment: Inhibition of HIV-1 clone 4736_4 (Raltegravir resistance mutant); format: cell-based; settings: Human immunodeficiency virus 1
Experimental: as §1, §2

[1] = Liver microsomal stability, human; format: in vitro ADME; settings: human liver microsome, NADPH
Experimental: (§3) The in vitro metabolic stability test was conducted for the compound of Example 1 of the present invention. In order to confirm in vitro metabolic stability, liver microsomal half-life of the compound was observed. A drug compound was reacted with NADPH using a species-specific (rat, dog, monkey, and human) liver microsome containing various metabolizing enzymes, and then half-life of the drug was determined by quantifying with LC-MS/MS in minutes.

[2] = system: CYP1A2, CYP2C9, CYP2D6, CYP3A4 and CYPC19; experiment: CYP450 inhibition test (five enzymes, text summary); format: in vitro ADME; settings: human liver microsomes, 10 μM
Experimental: The CYP450 inhibition test was carried out for the compound of the present invention. To human liver microsomes (0.25 mg/ml), 0.1 M phosphate buffer (pH 7.4) and drug cocktails of five drug-metabolizing enzymes (CYP1A2, CYP2C9, CYP2D6, CYP3A4 and CYPC19) (Cocktail A: Phenacetin 50 μM, S-mephenytoin 100 μM, dextromethorphan 5 nM, midazolam 2.5 μM, Cocktail B: tolbutamide 100 μM), the compound of Example 1 was added at concentrations of 0 and 10 μM, respectively, and then cultured at 37° C. for 15 minutes. Subsequently, in order to terminate the reaction, an acetonitrile solution containing an internal standard (chloropropamide) was added thereto, and resulting mixture was centrifuged (14,000 rpm, 4° C.) for 5 minutes. Supernatant was then injected into LC/MS/MS system and the metabolites of the substrate drugs were simultaneously analyzed to thereby evaluate activities of the test compound inhibiting the drug-metabolizing enzymes.

hERG K+ channel = target: T1, hERG K+ channel (Homo sapiens, UniProt Q12809); experiment: hERG K+ channel assay (Patch Clamp Recording Method); format: cell-based; settings: HERG-HEK293, automated planar patch clamp
T1 construct: expressed in transfected cells; host or cells: HERG-HEK293
T1 sequence (Q12809 whole entry): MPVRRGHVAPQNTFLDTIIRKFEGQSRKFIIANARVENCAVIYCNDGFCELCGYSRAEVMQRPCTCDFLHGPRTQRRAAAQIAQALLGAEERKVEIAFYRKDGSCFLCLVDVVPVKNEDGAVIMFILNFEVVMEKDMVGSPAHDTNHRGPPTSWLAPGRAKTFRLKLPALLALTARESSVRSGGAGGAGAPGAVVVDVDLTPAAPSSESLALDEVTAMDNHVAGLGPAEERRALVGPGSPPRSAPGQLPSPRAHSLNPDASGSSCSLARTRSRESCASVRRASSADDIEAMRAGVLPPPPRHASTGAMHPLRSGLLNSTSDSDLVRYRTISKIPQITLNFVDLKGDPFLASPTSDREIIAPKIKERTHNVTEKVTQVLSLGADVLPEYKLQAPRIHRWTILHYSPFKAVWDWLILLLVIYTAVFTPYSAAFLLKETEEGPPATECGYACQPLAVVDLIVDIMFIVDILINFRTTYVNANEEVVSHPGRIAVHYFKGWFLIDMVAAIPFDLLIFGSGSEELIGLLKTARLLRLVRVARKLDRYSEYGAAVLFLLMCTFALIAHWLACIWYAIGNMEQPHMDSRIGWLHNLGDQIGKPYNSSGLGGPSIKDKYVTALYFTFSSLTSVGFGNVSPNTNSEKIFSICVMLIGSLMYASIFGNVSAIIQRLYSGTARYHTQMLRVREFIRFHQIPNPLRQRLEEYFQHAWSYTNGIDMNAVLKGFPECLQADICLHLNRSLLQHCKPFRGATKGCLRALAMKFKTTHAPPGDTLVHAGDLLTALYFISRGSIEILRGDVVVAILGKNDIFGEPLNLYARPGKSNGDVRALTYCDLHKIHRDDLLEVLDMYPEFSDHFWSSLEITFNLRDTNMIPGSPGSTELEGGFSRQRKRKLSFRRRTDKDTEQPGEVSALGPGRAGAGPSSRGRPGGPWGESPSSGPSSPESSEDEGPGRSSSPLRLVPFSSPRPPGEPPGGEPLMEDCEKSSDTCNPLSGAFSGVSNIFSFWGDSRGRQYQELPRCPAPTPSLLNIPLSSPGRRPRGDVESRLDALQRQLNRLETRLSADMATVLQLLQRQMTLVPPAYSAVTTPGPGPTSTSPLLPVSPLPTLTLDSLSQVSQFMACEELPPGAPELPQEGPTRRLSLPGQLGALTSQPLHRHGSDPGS
Experimental: hERG K^+ channel assay was carried out to predict cardiotoxicity for the compound of the invention. The hERG activity of the compound was measured with HERG-HEK293 using automated planar patch clamp [PatchXpress 7000A]. This method is the most well-known method for studying ion channel, in which the flow of ions through the channel is directly measured with a voltage clamp.

[3] = Liver microsomal stability, rat; format: in vitro ADME; settings: rat liver microsome, NADPH
Experimental: as §3

[4] = Pharmacokinetics test in male rats; format: in vivo, rat
Experimental: Experiments were carried out to detect changes in in vivo kinetics including in vivo absorption, distribution, metabolism and excretion for the compound of Example 1 of the present invention. A tube was inserted into the jugular vein and femoral vein of a rat. A drug was administered into the femoral vein in the case of intravenous administration, and a drug was administered into the oral cavity in the case of oral administration. Blood was collected from the jugular vein at a predetermined time. Dose concentration was 1 mg/kg for intravenous administration, and it was 2 mg/kg for oral administration. After centrifuging blood to separate plasma, the plasma and urine samples were pretreated with an appropriate organic solvent, and then concentration of the drug was analyzed with LC-MS/MS. From the data of the drug concentration in blood relative to time which were analyzed after oral and intravenous administrations, the noncompartmental pharmacokinetic parameter was calculated with WinNonlin (Pharsight, USA).

[5] = Liver microsomal stability, monkey; format: in vitro ADME; settings: monkey liver microsome, NADPH, read-out: Monkey liver (T1/2, Min)
Experimental: as §3

[6] = Liver microsomal stability, dog; format: in vitro ADME; settings: dog liver microsome, NADPH, read-out: Dog liver (T1/2, Min)
Experimental: as §3

Wild Type HIV-1(IIIB) = experiment: Inhibition of wild type HIV-1(IIIB) in MT-4 cells (MTT method); format: cell-based
Experimental: as §1, §2

[7] = Human immunodeficiency virus 1, IIIB, MT4, read-out: EC50: concentration of 50% inhibition of HIV infection

Row | SMILES | IC50 (HIV-1 Clone 4736_2) [nM] | IC50 (HIV-1 Clone 8070_1) [nM] | IC50 (HIV-1 Clone 8070_2) [nM] | IC50 (HIV-1 Clone 1556_1) [nM] | IC50 (HIV-1 Clone 4736_4) [nM] | IC50 (HIV-1 NL4-3 wt) [nM] | EC50 (Wild Type HIV-1(IIIB); [7]) [nM] | other results
1 | C[C@@H]1CCO[C@H]2Cn3cc(C(=O)NCc4ccc(F)cc4F)c(=O)c(O)c3C(=O)N12 [Dolutegravir] | 3.5 | 8.5 | 4.4 | 3.2 | 3 | – | – | IC50 (HIV-1 NL4-3 wt; NL4-3 wt, read-out: IC50): 3.2 nM
2 | COc1cc2c(cc1Cc1cccc(Cl)c1F)c(=O)c(C(=O)O)cn2[C@H](CO)C(C)C [Elvitegravir] | 410 | > 10000 | – | 276 | 320 | < 0.1 | – | –
3 | Cc1nc2c(c(C)c(C)n2Cc2cnn(C)c2)c(-c2ccc(Cl)cc2)c1[C@H](OC(C)(C)C)C(=O)O [Example 1] | 1.1 | 0.9 | 3.4 | 3.4 | 3.4 | 3.6 | 3.23 | half-life ([1]; liver microsomes, read-out: Human liver (T1/2, Min)): 136 min; inhibitory activity against five CYP enzymes [2]: does not exhibit an inhibitory activity; IC50 (hERG K+ channel): 66700 nM; half-life ([3]; liver microsomes, read-out: Rat liver (T1/2, Min)): > 145 min; F ([4]; PO, 2 mg/kg): 71.8%; AUC(0-inf) ([4]; rat, plasma, IV, 1 mg/kg): 6.51 µM·h; AUC(0-t) ([4]; rat, plasma, IV, 1 mg/kg): 6.08 µM·h; clearance ([4]; rat, plasma, IV, 1 mg/kg): 5.38 mL/min/kg; half-life ([4]; rat, plasma, IV, 1 mg/kg): 8.63 h; Vd ([4]; rat, plasma, IV, 1 mg/kg, read-out: Vss): 1.77 L/kg; AUC(0-inf) ([4]; rat, plasma, PO, 2 mg/kg): 10.4 µM·h; AUC(0-t) ([4]; rat, plasma, PO, 2 mg/kg): 8.73 µM·h; Cmax ([4]; rat, plasma, PO, 2 mg/kg): 914 nM; Tmax ([4]; rat, plasma, PO, 2 mg/kg): 3.2 h; half-life ([4]; rat, plasma, PO, 2 mg/kg): 8.66 h; half-life ([5]; liver microsomes): 133 min; half-life ([6]; liver microsomes): > 145 min
4 | Cc1nn(C)c(Cl)c1Cn1c(C)c(C)c2c(-c3ccc(Cl)cc3)c([C@H](OC(C)(C)C)C(=O)O)c(C)nc21 [Example 2, (S)-2-(tert-butoxy)-2-(1-((5-chloro-1,3-dimethyl-1H-pyrazol-4-yl)methyl)-4-(4-chlorophenyl)-2,3,6-trimethyl-1H-pyrrolo[2,3-b]pyridin-5-yl) acetic acid] | – | – | – | – | – | – | – | EC50 (Wild Type HIV-1(IIIB); Human immunodeficiency virus 1, MT4, Wild Type HIV-1(IIIB) in MT-4 Cells, MTT method, read-out: EC50: concentration of 50% inhibition of HIV infection): 25.7 nM
5 | Cc1nnc(C(=O)NC(C)(C)c2nc(C(=O)NCc3ccc(F)cc3)c(O)c(=O)n2C)o1 [Raltegravir] | 351 | 4320 | 3840 | 3760 | 351 | 4.6 | 5.85 | –
6 | C[C@]12CC[C@H]3[C@@H](CCC4=CC(=O)CC[C@@]43C)[C@@H]1CC[C@@H]2O [Testosterone, reference compound] | – | – | – | – | – | – | – | Human liver (T1/2, Min) [1]: 19.7 min; Rat liver (T1/2, Min) [3]: 0.7 min; half-life ([5]; microsomes): 13 min; half-life ([6]; microsomes): 23.6 min
